Laboratory results from paper PMC10079235 (PLOS Neglected Tropical Diseases, 2023).
pEC50: −log10 of the molar value. Read-outs that look alike come from different tables or passages of the source.

Tested on: Cryptosporidium parvum
Test: Anti-cryptosporidial efficacy assay (44-h infection/qRT-PCR)
Conditions: for On-target (Eon) rate at EC50: Eq 2; for Eoff, proportion of off-parasite-target effect / Eon, proportion of on-parasite-target effect: MDR1(PTX) vs. NC model, Eq 3 and 4; for pEC50: read-out: Antiparasitic efficacy (EC50)

Ivermectin
On-target (Eon) rate at EC50 (MDR1(PTX) cell model): 77.1% | On-target (Eon) rate at EC50 (MDR1(PTX) cell model, listed as IVM): 77.1% | Off-target (Eoff) rate at EC50 (MDR1(PTX) cell model, from Pct changes of EC50 and TC50 (Eq 1)): 22.9% | Action on parasite target (on-target) conclusion (MDR1-transgenic host cell model): partially on-target | Eoff, proportion of off-parasite-target effect (at EC10): 18.40% | Eon, proportion of on-parasite-target effect (at EC10): 81.60% | Eon, proportion of on-parasite-target effect (at EC10, listed as IVM): 81.6% | Eoff, proportion of off-parasite-target effect (at EC20): 20.10% | Eon, proportion of on-parasite-target effect (at EC20): 79.90% | Eoff, proportion of off-parasite-target effect (at EC30): 21.20% | Eon, proportion of on-parasite-target effect (at EC30): 78.80% | Eoff, proportion of off-parasite-target effect (at EC40): 22.10% | Eon, proportion of on-parasite-target effect (at EC40): 77.90% | Eoff, proportion of off-parasite-target effect (at EC50): 22.8% | Eon, proportion of on-parasite-target effect (at EC50): 77.2% | Eoff, proportion of off-parasite-target effect (at EC60): 23.60% | Eon, proportion of on-parasite-target effect (at EC60): 76.40% | Eoff, proportion of off-parasite-target effect (at EC70): 24.40% | Eon, proportion of on-parasite-target effect (at EC70): 75.60% | Eoff, proportion of off-parasite-target effect (at EC80): 25.30% | Eon, proportion of on-parasite-target effect (at EC80): 74.70% | Eoff, proportion of off-parasite-target effect (at EC90): 26.60% | Eon, proportion of on-parasite-target effect (at EC90): 73.40% | Eon, proportion of on-parasite-target effect (at EC90, listed as IVM): 73.4% | pEC50 (C. parvum cultured in MDR1(PTX) host cells): 5.37 | pEC50 (C. parvum cultured in NC host cells): 5.49 | pEC50 (C. parvum cultured in WT host cells): 5.50
